Experimental data reported in patent US20230293458A1, “MULTIBIOTIC AGENTS AND METHODS OF USING THE SAME” (Flagship Pioneering Innovations V, Inc., priority 2017, published 2023).

Key:
[1] = Stability of multibiotic agents in Simulated Gastric Fluid (SGF); assay type: in vitro ADME; settings: simulated gastric fluid pH 1.6 with pepsin, 37° C., 1 μM
In short: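 Compounds were incubated at 1 μM final at 37 °C in simulated gastric fluid containing NaCl, pH 1.6, with FaSSIF powder and 0.1 mg/mL pepsin. Aliquots were taken at T0 and at regular intervals and quenched with acetonitrile. Degradation rates were determined by LC/MS.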

[2] = Stability of multibiotic agents in Simulated Intestinal Fluid (SIF); assay type: in vitro ADME; settings: simulated intestinal fluid pH 6.7 with pancreatin, 37° C., 1 μM
In short: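 Compounds at 1 μM final (from 1 mM DMSO stock) incubated at 37 °C with agitation in fresh SIF (FaSSIF plus pancreatin in pH 6.7 phosphate buffer). Aliquots taken at T0 and regular intervals, quenched with 1 volume acetonitrile. Degradation rate determined by LC/MS.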

Structure (SMILES)	Assay 2 (SGF) (% Remaining @ 4 hours) [1]	Assay 3 (SIF) (% @ Remaining 4 hours) [2]
CC(O)CCOC(=O)c1cc(N)ccc1O (stereo in doubt) [Example 112, [(3R)-3-hydroxybutyl] 5-amino-2-hydroxy-benzoate]	C (>75% of the tested compound remaining)	C (>75% of the tested compound remaining)
CCCC(=O)O[C@H](C)CC(=O)OCc1cnc(C)c(OC(=O)C[C@@H](C)OC(=O)CCC)c1COC(=O)C[C@@H](C)OC(=O)CCC [Example 101, [5-[(3R)-3-butanoyloxybutanoyl]oxy-4-[[(3R)-3-butanoyloxybutanoyl]oxymethyl]-6-methyl-3-pyridyl]methyl (3R)-3-butanoyloxybutanoate]	C (>75% of the tested compound remaining)	C (>75% of the tested compound remaining)
CC(=O)OC[C@H](OC(C)=O)[C@@H](COC(C)=O)OC(C)=O [Example 81, (2R, 3S)-butane-1,2,3,4-tetrayl tetraacetate]	C (>75% of the tested compound remaining)	C (>75% of the tested compound remaining)
O=C(CCc1c[nH]c2ccccc12)OC[C@@H](OC(=O)CCc1c[nH]c2ccccc12)[C@H]1OC[C@H](OC(=O)CCc2c[nH]c3ccccc23)[C@H]1OC(=O)CCc1c[nH]c2ccccc12 [Example 107, [(2R)-2-[(2R,3R,4S)-3,4-bis[3-(1H-indol-3-yl)propanoyloxy]tetrahydrofuran-2-yl]-2-[3-(1H-indol-3-yl)propanoyloxy]ethyl] 3-(1H-indol-3-yl)propanoate]	C (>75% of the tested compound remaining)	B (25-75% of the tested compound remaining)
C[C@@H](O)CCOC(=O)C[C@@H](C)O [Example 172, [(3R)-3-hydroxybutyl] (3R)-3-hydroxybutanoate]	C (>75% of the tested compound remaining)	C (>75% of the tested compound remaining)
CCCC(=O)OCc1cnc(C)c(OC(=O)CCC)c1COC(=O)CCC [Example 100, [5-butanoyloxy-4-(butanoyloxymethyl)-6-methyl-3-pyridyl]methyl butanoate]	C (>75% of the tested compound remaining)	C (>75% of the tested compound remaining)
CC(=O)OCCCNC(=O)[C@H](OC(C)=O)C(C)(C)COC(C)=O [Example 89, 3-[[(2R)-2,4-diacetoxy-3,3-dimethyl-butanoyl]amino]propyl acetate]	C (>75% of the tested compound remaining)	C (>75% of the tested compound remaining)
C[C@@H](O)CC(=O)NCCCN(CCCCN(CCCNC(=O)C[C@@H](C)O)C(=O)C[C@@H](C)O)C(=O)C[C@@H](C)O [Example 136, (3R)-3-hydroxy-N-[3-[[(3R)-3-hydroxybutanoyl]-[4-[[(3R)-3-hydroxybutanoyl]-[3-[[(3R)-3-hydroxybutanoyl]amino]propyl]amino]butyl]amino]propyl]butanamide]	C (>75% of the tested compound remaining)	C (>75% of the tested compound remaining)
CCC(=O)OC1O[C@@H](C)[C@@H](OC(=O)CC)[C@@H](OC(=O)CC)[C@@H]1OC(=O)CC (stereo partly drawn) [Example 157, [(2S,3R,4R,5S)-2-methyl-4,5,6-tri(propanoyloxy)tetrahydropyran-3-yl] propanoate]	C (>75% of the tested compound remaining)	A (<25% of the tested compound remaining)
CCCC(=O)O[C@H](C)CC(=O)Oc1ccc(/C=C/C(=O)CC(=O)/C=C/c2ccc(OC(=O)C[C@@H](C)OC(=O)CCC)c(OC)c2)cc1OC [Example 73, [4-[(1E,6E)-7-[4-[(3R)-3-butanoyloxybutanoyl]oxy-3-methoxy-phenyl]-3,5-dioxo-hepta-1,6-dienyl]-2-methoxy-phenyl] (3R)-3-butanoyloxybutanoate]	C (>75% of the tested compound remaining)	B (25-75% of the tested compound remaining)
CO[C@@H]1[C@@H](OC(C)=O)[C@@H](OC(C)=O)[C@H](OC(C)=O)[C@H](OC(C)=O)[C@H]1OC(C)=O [Example 84, (1R,2R,3R,4S,5R,6R)-2,3,4,6-tetrakis(acetyloxy)-5-methoxycyclohexyl acetate]	C (>75% of the tested compound remaining)	C (>75% of the tested compound remaining)
CCCC(=O)Oc1ccc(/N=N/c2ccc(OC(=O)CCC)c(C(=O)O)c2)cc1C(=O)O [Example 3, 2-butanoyloxy-5-[(E)-(4-butanoyloxy-3-carboxy-phenyl)azo]benzoic acid]	A (<25% of the tested compound remaining)	A (<25% of the tested compound remaining)
O=C(Cc1c[nH]c2ccccc12)O[C@H]1OC[C@@H](OC(=O)Cc2c[nH]c3ccccc23)[C@@H](OC(=O)Cc2c[nH]c3ccccc23)[C@H]1OC(=O)Cc1c[nH]c2ccccc12 [Example 145, [(3R,4R,5R,6R)-4,5,6-tris[[2-(1H-indol-3-yl)acetyl]oxy]tetrahydropyran-3-yl] 2-(1H-indol-3-yl)acetate]	C (>75% of the tested compound remaining)	A (<25% of the tested compound remaining)
C=C1CC[C@H](OC(=O)[C@H](OC(=O)CCC)[C@@H](OC(=O)CCC)[C@H](OC(=O)CCC)[C@@H](COC(=O)CCC)OC(=O)CCC)C/C1=C/C=C1\CCC[C@]2(C)[C@@H]([C@H](C)CCCC(C)C)CC[C@@H]12 [Example 184, [(1S,3Z)-3-[(2E)-2-[(1R,3aS,7aR)-1-[(1R)-1,5-dimethylhexyl]-7a-methyl-2,3,3a,5,6,7-hexahydro-1H-inden-4-ylidene]ethylidene]-4-methylene-cyclohexyl] (2R,3S,4R,5R)-2,3,4,5,6-penta(butanoyloxy)hexanoate]	B (25-75% of the tested compound remaining)	A (<25% of the tested compound remaining)
C[C@@H]1OC(O)[C@H](OC(=O)Cc2c[nH]c3ccccc23)[C@H](OC(=O)Cc2c[nH]c3ccccc23)[C@H]1OC(=O)Cc1c[nH]c2ccccc12 (stereo partly drawn) [Example 155, [(2S,3S,4R,5R)-6-hydroxy-4,5-bis[[2-(1H-indol-3-yl)acetyl]oxy]-2-methyl-tetrahydropyran-3-yl] 2-(1H-indol-3-yl)acetate]	C (>75% of the tested compound remaining)	C (>75% of the tested compound remaining)
CC(=O)Oc1ccc(/C=C/c2cc(OC(C)=O)cc(OC(C)=O)c2)cc1 [Example 118, [(E)-2-(3,5-diacetoxyphenyl)vinyl]phenyl] acetate]	C (>75% of the tested compound remaining)	C (>75% of the tested compound remaining)
CCCC(=O)OCC1(OC(=O)CCC)OC[C@@H](OC(=O)CCC)[C@H](OC(=O)CCC)[C@@H]1OC(=O)CCC (stereo partly drawn) [Example 163, [(3S,4S,5R)-2,3,4,5-tetra(butanoyloxy)tetrahydropyran-2-yl]methyl butanoate]	B (25-75% of the tested compound remaining)	A (<25% of the tested compound remaining)
CCCC(=O)O[C@H](C)CC(=O)Oc1ccc(/C=C/c2cc(OC(=O)C[C@@H](C)OC(=O)CCC)cc(OC(=O)C[C@@H](C)OC(=O)CCC)c2)cc1 [Example 72, [4-[(E)-2-[3,5-bis[[(3R)-3-butanoyloxybutanoyl]oxy]phenyl]vinyl]phenyl] (3R)-3-butanoyloxy-butanoate]	C (>75% of the tested compound remaining)	B (25-75% of the tested compound remaining)
CC(=O)Oc1cc(OC(C)=O)c2c(=O)c(OC(C)=O)c(-c3ccc(OC(C)=O)c(OC(C)=O)c3)oc2c1 [Example 74, [2-acetoxy-4-(3,5,7-triacetoxy-4-oxo-chromen-2-yl)phenyl] acetate]	C (>75% of the tested compound remaining)	A (<25% of the tested compound remaining)
CCCC(=O)O[C@H](C)CC(=O)Oc1ccc2c(c1)oc(=O)c1cc(OC(=O)C[C@@H](C)OC(=O)CCC)c(OC(=O)C[C@@H](C)OC(=O)CCC)cc12 [Example 122, [8,9-bis[[(3R)-3-butanoyloxybutanoyl]oxy]-6-oxo-benzo[c]chromen-3-yl] (3R)-3-butanoyloxybutanoate]	C (>75% of the tested compound remaining)	A (<25% of the tested compound remaining)
CC(=O)OC[C@@H](OC(C)=O)[C@H]1OC[C@H](OC(C)=O)[C@H]1OC(C)=O [Example 86, [(2R)-2-acetoxy-2-[(2R,3R,4S)-3,4-diacetoxytetrahydrofuran-2-yl]ethyl] acetate]	C (>75% of the tested compound remaining)	C (>75% of the tested compound remaining)
CCCC(=O)OC[C@@H](OC(=O)CCC)[C@@H](OC(=O)CCC)[C@H](OC(=O)CCC)[C@@H](OC(=O)CCC)C(=O)Oc1ccc(/C=C/c2cc(OC(=O)[C@H](OC(=O)CCC)[C@@H](OC(=O)CCC)[C@H](OC(=O)CCC)[C@@H](COC(=O)CCC)OC(=O)CCC)cc(OC(=O)[C@H](OC(=O)CCC)[C@@H](OC(=O)CCC)[C@H](OC(=O)CCC)[C@@H](COC(=O)CCC)OC(=O)CCC)c2)cc1 [Example 164, [4-[(E)-2-[3,5-bis[[(2R,3S,4R,5R)-2,3,4,5,6-penta(butanoyloxy)hexanoyl]oxy]phenyl]vinyl]phenyl] (2R,3S,4R,5R)-2,3,4,5,6-penta(butanoyloxy)hexanoate]	B (25-75% of the tested compound remaining)	B (25-75% of the tested compound remaining)
